Results reported in PubChem BioAssay (NCI).
Values joined by “and” are separate entries in the source; they are usually repeats but may differ in a detail not shown here. Identical values can stand only once.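 Cultured in 96-well plates, cells were exposed to test compound for 48 hours across five concentrations. Abbreviation: GI50, concentration required for 50% inhibition of growth. TGI: total growth inhibition.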

What was measured:
Assay in all cases: DTP human tumour cell line panel, 48 h
[1] = system: 786-0 renal
[2] = system: A498 renal
[3] = system: A549 NSCLC
[4] = system: BT-549 breast
[5] = system: CAKI-1 renal
[6] = system: CCRF-CEM leukemia
[7] = system: COLO 205 colon
[8] = system: DU-145 prostate
[9] = system: EKVX NSCLC
[10] = system: HCC-2998 colon
[11] = system: HCT-116 colon
[12] = system: HOP-62 NSCLC
[13] = system: HOP-92 NSCLC
[14] = system: HS 578T breast
[15] = system: HT29 colon
[16] = system: K-562 leukemia
[17] = system: KM12 colon
[18] = system: LOX IMVI melanoma
[19] = system: M14 melanoma
[20] = system: MALME-3M melanoma
[21] = system: MCF7 breast
[22] = system: MDA-MB-231 breast
[23] = system: MDA-MB-435
[24] = system: NCI-H226 lung
[25] = system: NCI-H460 lung
[26] = system: NCI-H522 lung
[27] = system: NCI/ADR-RES ovarian
[28] = system: OVCAR-3 ovarian
[29] = system: OVCAR-4 ovarian
[30] = system: OVCAR-5 ovarian
[31] = system: OVCAR-8 ovarian
[32] = system: PC-3 prostate
[33] = system: RPMI-8226 leukemia
[34] = system: RXF 393 renal
[35] = system: SF-268 CNS
[36] = system: SF-295 CNS
[37] = system: SF-539 CNS
[38] = system: SK-MEL-2 melanoma
[39] = system: SK-MEL-28 melanoma
[40] = system: SK-MEL-5 melanoma
[41] = system: SK-OV-3 ovarian
[42] = system: SN12C renal
[43] = system: SNB-19 CNS
[44] = system: SNB-75 CNS
[45] = system: SR leukemia
[46] = system: SW-620 colon
[47] = system: TK-10 renal
[48] = system: UACC-257 melanoma
[49] = system: UO-31 renal
[50] = system: ACHN renal
[51] = system: HCT-15 colon
[52] = system: HL-60(TB) leukemia
[53] = system: IGROV1 ovarian
[54] = system: MOLT-4 leukemia
[55] = system: NCI-H23 lung
[56] = system: U251 CNS
[57] = system: UACC-62 melanoma

In the case of `CC(=O)c1cnc2ccc(-c3cc(Cl)c(O)c(Cl)c3)nc2c1NC1CCC(CN(C)C)CC1` (stereo not drawn), the GI50 [1] is reported as 52.1 nM and 346 nM, the TGI [1] is reported as 289 nM and 1420 nM and the GI50 [2] is reported as 13.7 nM and 111 nM. For the same molecule, the TGI [2] was 55.9 nM and 403 nM, the TGI [3] was 570 nM and 1450 nM and the TGI [4] was 120 nM and 588 nM. For the same molecule, the GI50 [5] was 12.6 nM and 109 nM, the TGI [5] was 672 nM and 535 nM and the TGI [6] was 240 nM and 1540 nM. For the same molecule, the GI50 [7] was 42.5 nM and 318 nM, the TGI [8] was 1080 nM and 1760 nM and the GI50 [9] was 48.6 nM and 337 nM. For the same molecule, the GI50 [10] was 44.9 nM and 191 nM, the GI50 [11] was 9.06 nM and 61.3 nM and the TGI [11] was 2500 nM and > 10000 nM. The GI50 [12] was 27.5 nM and 195 nM, the TGI [12] was 161 nM and 959 nM and the GI50 [13] was 11.4 nM and 52.6 nM. The TGI [13] was 99 nM and 458 nM, the TGI [14] was 107 nM and 739 nM and the GI50 [15] was 84.4 nM and 436 nM. For the same molecule, the TGI [15] was 0.888 µM and 4.41 µM, the TGI [16] was 2.5 µM and > 10 µM and the TGI [17] was 558 nM and 2000 nM. For the same molecule, the TGI [18] was 264 nM and 1120 nM, the TGI [19] was 273 nM and 760 nM and the GI50 [20] was 48.4 nM and 49.9 nM. For the same molecule, the TGI [20] was 220 nM and 416 nM, the GI50 [21] was 17.9 nM and 169 nM and the TGI [21] was 224 nM and 695 nM. The GI50 [22] was 31.6 nM and 185 nM, the TGI [22] was 495 nM and 772 nM and the GI50 [23] was 12.8 nM and 116 nM. For the same molecule, the TGI [23] was 384 nM and 1160 nM, the GI50 [24] was 39.5 nM and 81.9 nM and the TGI [24] was 359 nM and 608 nM. The TGI [25] was 105 nM and 1050 nM, the GI50 [26] was 4.88 nM and 48 nM and the GI50 [27] was 53.1 nM and 310 nM. The TGI [28] was 78.1 nM and 562 nM, the GI50 [29] was 40.4 nM and 245 nM and the TGI [29] was 324 nM and 2580 nM. For the same molecule, the GI50 [30] was 61.2 nM and 207 nM, the TGI [30] was 2.5 µM and > 10 µM and the GI50 [31] was 28.9 nM and 255 nM. For the same molecule, the TGI [32] was 2500 nM and 1190 nM, the GI50 [33] was 45.1 nM and 367 nM and the GI50 [34] was 35.8 nM and 185 nM. The TGI [34] was 93.9 nM and 419 nM, the TGI [35] was 189 nM and 1220 nM and the GI50 [36] was 32.9 nM and 267 nM. For the same molecule, the TGI [37] was 53.1 nM and 505 nM, the GI50 [38] was 28.8 nM and 237 nM and the TGI [38] was 85.5 nM and 689 nM. For the same molecule, the GI50 [39] was 19.4 nM and 186 nM, the TGI [39] was 171 nM and 758 nM and the TGI [40] was 55.4 nM and 306 nM. The TGI [41] was 111 nM and 987 nM, the TGI [42] was 1340 nM and 2270 nM and the GI50 [43] was 31.1 nM and 230 nM. The TGI [43] was 2.5 µM and 3.82 µM, the GI50 [44] was 5.15 nM and 33.3 nM and the TGI [44] was 36.8 nM and 360 nM. For the same molecule, the GI50 [45] was 5.49 nM, the TGI [45] was 39.8 nM and the TGI [46] was 2.5 µM and > 10 µM. For the same molecule, the GI50 [47] was 30.7 nM and 160 nM, the TGI [47] was 106 nM and 664 nM and the GI50 [48] was 54.4 nM and 192 nM. The TGI [48] was 234 nM and 783 nM and the TGI [49] was 87.7 nM and 508 nM.

`COC(=O)C1CCC(NC(=O)c2csc([C@@H](C[C@H](C(C)C)N(C)C(=O)[C@@H](NC(=O)[C@H]3CCCCN3C)C(C)C)OC(C)=O)n2)CC1` (stereo partly drawn) was tested, and the GI50 [1] was 7.42 nM and 14 nM, the TGI [1] was > 33300 nM and the GI50 [2] was 6.8 nM and 12.6 nM. For the same molecule, the TGI [2] was 127 nM, the GI50 [3] was 8.59 nM and 21 nM and the TGI [3] was > 33300 nM. The GI50 [50] was 279 nM, the TGI [50] was > 33.3 µM and the GI50 [4] was 9.9 nM and 20 nM. For the same molecule, the TGI [4] was 791 nM and 225 nM, the GI50 [6] was 4.07 nM and 10.7 nM and the TGI [6] was > 33300 nM. The GI50 [7] was 3.59 nM and 12.1 nM, the TGI [7] was 14.1 nM and 78.4 nM and the GI50 [8] was 4.06 nM and 9.67 nM. The TGI [8] was 28.9 nM, the GI50 [9] was 15.2 nM and 38.5 nM and the TGI [9] was > 33.3 µM. For the same molecule, the GI50 [10] was 32.5 nM and 99.4 nM, the TGI [10] was > 33.3 µM and the GI50 [11] was 4.01 nM. For the same molecule, the GI50 [51] was 18.5 nM and 53.6 nM, the TGI [51] was > 33.3 µM and the GI50 [52] was 3 nM and 7.35 nM. The TGI [52] was 13.6 nM and 18.1 nM, the GI50 [12] was 5.19 nM and 16 nM and the TGI [12] was > 33300 nM. For the same molecule, the GI50 [13] was 15.3 nM, the TGI [13] was 6730 nM and the GI50 [14] was 4.29 nM and 11.1 nM. For the same molecule, the TGI [14] was > 33300 nM, the GI50 [15] was 3.43 nM and 10.4 nM and the TGI [15] was 4.2 µM. The GI50 [53] was 11.5 nM and 30.5 nM, the TGI [53] was > 33.3 µM and the GI50 [16] was 2.56 nM and 7.66 nM. For the same molecule, the TGI [16] was > 33.3 µM, the GI50 [17] was 4.98 nM and 14 nM and the TGI [17] was > 33300 nM. For the same molecule, the GI50 [18] was 6.44 nM and 16.4 nM, the TGI [18] was > 33300 nM and the GI50 [19] was 5.7 nM and 5.52 nM. The TGI [19] was 16.3 nM, the GI50 [21] was 3.09 nM and 12.1 nM and the TGI [21] was > 33300 nM. The GI50 [22] was 8.63 nM and 24 nM, the GI50 [23] was 0.404 nM and 3.33 nM and the TGI [23] was 2.65 nM and 8.57 nM. For the same molecule, the GI50 [54] was 5.74 nM and 14.9 nM, the TGI [54] was > 33.3 µM and the GI50 [24] was 12.6 nM and 31.7 nM. The TGI [24] was > 33300 nM, the GI50 [55] was 34.3 nM and 21.7 nM and the TGI [55] was > 33.3 µM. For the same molecule, the GI50 [25] was 3.72 nM and 12 nM, the TGI [25] was > 33300 nM and the GI50 [26] was 1.38 nM and 3.33 nM. For the same molecule, the TGI [26] was 5.9 nM and 10.7 nM, the GI50 [27] was 106 nM and 258 nM and the TGI [27] was > 33.3 µM. The GI50 [28] was 3.59 nM and 9.35 nM, the TGI [28] was 29.4 nM and the TGI [29] was > 33300 nM. For the same molecule, the GI50 [30] was 11.2 nM and 21.2 nM, the TGI [30] was > 33.3 µM and the GI50 [31] was 11.4 nM and 26.6 nM. The TGI [31] was > 33.3 µM, the GI50 [32] was 8.4 nM and 16.8 nM and the TGI [32] was > 33300 nM. For the same molecule, the GI50 [33] was 4.98 nM and 14.9 nM, the TGI [33] was > 33.3 µM and the GI50 [34] was 9.23 nM. For the same molecule, the TGI [34] was > 33300 nM, the GI50 [35] was 9.2 nM and 19.7 nM and the TGI [35] was > 33300 nM. The GI50 [36] was 4.23 nM and 14.6 nM, the TGI [36] was > 33.3 µM and the GI50 [37] was 3.94 nM and 12.7 nM. For the same molecule, the TGI [37] was 63.7 nM and 151 nM, the GI50 [38] was 7.62 nM and 10.9 nM and the TGI [38] was > 33300 nM. For the same molecule, the GI50 [39] was > 33300 nM, the TGI [39] was > 33300 nM and the GI50 [40] was 3.26 nM and 10.8 nM. For the same molecule, the TGI [40] was 118 nM and 348 nM, the GI50 [41] was 4.5 nM and 14.8 nM and the TGI [41] was > 33300 nM. The GI50 [42] was 6.74 nM and 22.5 nM, the TGI [42] was > 33300 nM and the GI50 [43] was 4.7 nM and 15.2 nM. For the same molecule, the TGI [43] was > 33.3 µM, the GI50 [44] was 3.07 nM and 11.9 nM and the TGI [44] was > 33300 nM. The GI50 [45] was 2.12 nM and 3.33 nM, the TGI [45] was > 33300 nM and the GI50 [46] was 4.53 nM and 14.9 nM. The TGI [46] was > 33.3 µM, the GI50 [47] was 1050 nM and the TGI [47] was > 33300 nM. For the same molecule, the GI50 [56] was 4.99 nM and 15.4 nM, the TGI [56] was > 33.3 µM and the GI50 [48] was > 33300 nM. For the same molecule, the TGI [48] was > 33300 nM, the GI50 [57] was 3.82 nM and 15.7 nM and the TGI [57] was > 33.3 µM. For the same molecule, the GI50 [49] was 68.4 nM and 303 nM and the TGI [49] was > 33300 nM.
